Consider 23 molecules from US20260224758A1, “ALPHA-SYNUCLEIN BINDERS AND METHODS OF USE” (Merck Sharp & Dohme LLC, priority 2023, published 2026).

In general, pKi refers to −log10 of the Ki, conventionally taken in molar units. A word on the pKd: it is the Kd on a negative log10 scale, so that one unit is a factor of ten.

pKd, pKi: −log10 of the molar value.

The target in the first experiment is T1, triton-extracted alpha-synuclein from PD Tissue (Homo sapiens, UniProt P37840).
T1 construct: tissue Analytic Biological Services Inc; host or cells: human PD temporal cortex grey matter, Triton X-100 insoluble pellet
The experiment can be described thus: Alpha-synuclein tissue homogenate binding assay (Assay 1), displacement of [^3H]-1000. The conditions noted are these: Aβ Tissue Ki / α-synuclein Tissue Ki. Here is the method: Frozen human brain tissues from PD patients were purchased from Analytic Biological Services Inc. The samples were post-mortem tissues from donors with clinical diagnosis of late stage of PD. Alpha-synuclein, tau and amyloid burden was determined through a combination of immunohistochemistry on frozen thin coronal sections, as well as alpha Lisa-based quantification of protein levels in a detergent insoluble protein fraction. A tissue sample of temporal cortex was identified from one donor as having moderate to high alpha-synuclein burden, low amyloid and minimal to no tau pathology. The detergent insoluble fraction of temporal cortex from this patient was used to support homogenate binding studies. Grey matter was dissected out of the temporal cortex tissue with a dissecting blade and minced with fine dissecting scissors. […] Homogenates were centrifuged at 100,000×g for 45 minutes. The pellet was resuspended in TBS-TX buffer, using a Polytron at highest setting for 30 seconds at 4° C. Homogenates were centrifuged at 100,000×g for 45 minutes and the pellet was resuspended in TBS-TX buffer. A BCA protein assay was performed on the final homogenate to determine the protein concentration. […] For displacement a-synuclein binding assay, compounds and control were solvated in dimethyl sulfoxide (DMSO) and transferred using focused acoustic energy by an Echo 655 liquid handling instrument (Beckman Coulter, Indianapolis, IN) into designated wells of uniquely bar coded 96-well v-bottom low binding polypropylene microplates (Thermo Scientific, 249946). Compound dose response curves were prepared in a 10-point, 3-fold fashion within columns 2-11 of the microplate from high to low compound concentrations. […] Liquid-handling steps for dispensing insoluble fractions of PD brain homogenates and radioligand were performed using a Bravo automated liquid handling platform equipped with a 96LT disposable tip head (Agilent Technologies, Santa Clara. CA). […] The incubation was terminated by rapid filtration through UniFilter-96 GF/C microplates (pre-treated for 30 minutes with 0.2% Polyethylenimine at 4° C.) by using a FilterMate Harvester (PerkinElmer). […] The bottom of each UniFilter-96 GF/C microplate was adhesively sealed (PerkinElmer 6005199) prior to the addition of 50 μL MicroScint-20 liquid scintillation cocktail (PerkinElmer 6013621) to each well. A clear adhesive seal (TopSeal-A PLUS, PerkinElmer 6050185) was then applied to the top of each microplate and counted 1 minute/well on MicroBeta^2 system (PerkinElmer.
For the molecule `COC[C@H]1CN(c2ncc(/C=C/c3ccc(-n4ccnc4)nc3)cn2)CCN1c1ncc(OCC(O)CF)cn1` (stereo partly drawn) [Example 39, 1-((2-((R)-4-(5-((E)-2-(6-(1H-imidazol-1-yl)pyridin-3-yl)vinyl)pyrimidin-2-yl)-2-(methoxymethyl)piperazin-1-yl)pyrimidin-5-yl)oxy)-3-fluoropropan-2-ol], the “Selectivity ratio (Assay 2/Assay 1)” value is on record as 7692.
The same measure, in the same setting: then `COC[C@H]1CN(c2ncc(/C=C/c3ccc(-n4ccnc4)nc3)cn2)CCN1c1ncc(OCCF)cn1` [Example 35, (R,E)-5-(2-(6-(1H-imidazol-1-yl)pyridin-3-yl)vinyl)-2-(4-(5-(2-fluoroethoxy)pyrimidin-2-yl)-3-(methoxymethyl)piperazin-1-yl)pyrimidine], with 2000; and `COC[C@H]1CN(c2ncc(C#Cc3ccc(-n4ccnc4)nc3)cn2)CCN1c1cc(F)ncn1` [Example 12, (R)-5-((6-(1H-imidazol-1-yl)pyridin-3-yl)ethynyl)-2-(4-(6-fluoropyrimidin-4-yl)-3-(methoxymethyl)piperazin-1-yl)pyrimidine], with 3636.

Still in this experiment, the particulars now being: insoluble fraction of PD brain homogenate, [^3H]-1000 3.0 nM, Kd 0.90 nM; read-out: α-synuclein Tissue Ki (Assay 1).
Consider `COC[C@H]1CN(c2ncc(/C=C/c3ccc(-n4ccnc4)nc3)cn2)CCN1c1ncc(OCC(O)CF)cn1` (stereo partly drawn) [Example 39, 1-((2-((R)-4-(5-((E)-2-(6-(1H-imidazol-1-yl)pyridin-3-yl)vinyl)pyrimidin-2-yl)-2-(methoxymethyl)piperazin-1-yl)pyrimidin-5-yl)oxy)-3-fluoropropan-2-ol], for which the negative-log Ki (pKi) was 9.28.
For the molecule `COC[C@H]1CN(c2ncc(C#Cc3cnc(-n4cnnc4)nc3)cn2)CCN1c1ccc(F)cn1` [Example 89, (R)-5-((2-(4H-1,2,4-triazol-4-yl)pyrimidin-5-yl)ethynyl)-2-(4-(5-fluoropyridin-2-yl)-3-(methoxymethyl)piperazin-1-yl)pyrimidine], the negative-log Ki (pKi) was 8.59.
The same measure, in the same setting: then `Cn1cc(-c2ncc(C#Cc3cnc(N4CCN(c5ncncn5)C[C@H]4COCCF)nc3)cn2)cn1` [Example 96, (S)-2-(3-((2-fluoroethoxy)methyl)-4-(5-((2-(1-methyl-1H-pyrazol-4-yl)pyrimidin-5-yl)ethynyl)pyrimidin-2-yl)piperazin-1-yl)-1,3,5-triazine], with 8.26; and `COC[C@H]1CN(c2ncc(/C=C/c3ccc(-n4ccnc4)nc3)cn2)CCN1c1ncc(OCCF)cn1` [Example 35, (R,E)-5-(2-(6-(1H-imidazol-1-yl)pyridin-3-yl)vinyl)-2-(4-(5-(2-fluoroethoxy)pyrimidin-2-yl)-3-(methoxymethyl)piperazin-1-yl)pyrimidine], with 8.70.
For the molecule `COC[C@H]1CN(c2ncc(C#Cc3ccc(-c4cc(F)ncn4)nc3)cn2)CCN1c1ncc(C#N)cn1` [Example 81, (R)-2-(4-(5-((6-(6-fluoropyrimidin-4-yl)pyridin-3-yl)ethynyl)pyrimidin-2-yl)-2-(methoxymethyl)piperazin-1-yl)pyrimidine-5-carbonitrile], the negative logarithm of the Ki (pKi) is 8.93.
Take `Cn1nccc1-c1ncc(C#Cc2cnc(N3CCN(c4ncncn4)[C@@H](COCCF)C3)nc2)cn1` [Example 98, (R)-2-(2-((2-fluoroethoxy)methyl)-4-(5-((2-(1-methyl-1H-pyrazol-5-yl)pyrimidin-5-yl)ethynyl)pyrimidin-2-yl)piperazin-1-yl)-1,3,5-triazine]: the pKi is 8.71.
Regarding `Cn1cc(-c2ncc(C#Cc3cnc(N4CCN(c5ncccn5)[C@@H](COCCOCCOCCOCCF)C4)nc3)cn2)cn1` [Example 83, (R)-2-(3-(13-fluoro-2,5,8,11-tetraoxatridecyl)-4-(pyrimidin-2-yl)piperazin-1-yl)-5-((2-(1-methyl-1H-pyrazol-4-yl)pyrimidin-5-yl)ethynyl)pyrimidine], the pKi was 8.62.
Same read-out and setting: then `COC[C@H]1CN(c2ncncn2)CCN1c1ncc(C#Cc2cnc(-c3cnn(CCF)c3)nc2)cn1` [Example 84, (R)-2-(4-(5-((2-(1-(2-fluoroethyl)-1H-pyrazol-4-yl)pyrimidin-5-yl)ethynyl)pyrimidin-2-yl)-3-(methoxymethyl)piperazin-1-yl)-1,3,5-triazine], with 8.64; and `FCCOC[C@H]1CN(c2ncc(C#Cc3cnc(-c4cnco4)nc3)cn2)CCN1c1ncncn1` [Example 55, (R)-5-(5-((2-(3-((2-fluoroethoxy)methyl)-4-(1,3,5-triazin-2-yl)piperazin-1-yl)pyrimidin-5-yl)ethynyl)pyrimidin-2-yl)oxazole], with 8.18; and `Cn1ccc(-c2ncc(C#Cc3cnc(N4CCN(c5ncncn5)[C@@H](COCCF)C4)nc3)cn2)n1` [Example 49, (R)-2-(2-((2-fluoroethoxy)methyl)-4-(5-((2-(1-methyl-1H-pyrazol-3-yl)pyrimidin-5-yl)ethynyl)pyrimidin-2-yl)piperazin-1-yl)-1,3,5-triazine], with 8.54.
The same measure, in the same setting: then `Nc1cnn(-c2ncc(C#Cc3cnc(N4CCN(c5ncncn5)[C@@H](COCCF)C4)nc3)cn2)c1` [Example 73, (R)-1-(5-((2-(3-((2-fluoroethoxy)methyl)-4-(1,3,5-triazin-2-yl)piperazin-1-yl)pyrimidin-5-yl)ethynyl)pyrimidin-2-yl)-1H-pyrazol-4-amine], with 8.04.
The same measure, in the same setting: for `COC[C@H]1CN(c2ncc(C#Cc3cnc(-c4cnn(CCCF)c4)nc3)cn2)CCN1c1ncncn1` [Example 91, (R)-2-(4-(5-((2-(1-(3-fluoropropyl)-1H-pyrazol-4-yl)pyrimidin-5-yl)ethynyl)pyrimidin-2-yl)-2-(methoxymethyl)piperazin-1-yl)-1,3,5-triazine] the value was 8.61; for `Cn1cc(-c2ncc(C#Cc3cnc(N4CCN(c5ccncn5)[C@@H](COCCF)C4)nc3)cn2)cn1` [Example 53, (R)-2-(3-((2-fluoroethoxy)methyl)-4-(pyrimidin-4-yl)piperazin-1-yl)-5-((2-(1-methyl-1H-pyrazol-4-yl)pyrimidin-5-yl)ethynyl)pyrimidine], 9.49.
As to `COC[C@H]1CN(c2ncc(C#Cc3ccc(-c4cnn(C)c4)nc3)cn2)CCN1c1ncc(OCCF)cn1` [Example 92, (R)-5-(2-fluoroethoxy)-2-(2-(methoxymethyl)-4-(5-((6-(1-methyl-1H-pyrazol-4-yl)pyridin-3-yl)ethynyl)pyrimidin-2-yl)piperazin-1-yl)pyrimidine], the negative logarithm of the Ki (pKi) was 9.08.
Consider `FCCOC[C@H]1CN(c2ncc(C#Cc3cnc(-c4cnco4)nc3)cn2)CCN1c1ncccn1` [Example 93, (R)-5-(5-((2-(3-((2-fluoroethoxy)methyl)-4-(pyrimidin-2-yl)piperazin-1-yl)pyrimidin-5-yl)ethynyl)pyrimidin-2-yl)oxazole], for which the pKi is 8.51.
For the molecule `COC[C@@H]1CN(c2ncncn2)CCN1c1ncc(C#Cc2cnc(-c3cnn(CCF)c3)nc2)cn1` [Example 87, (S)-2-(4-(5-((2-(1-(2-fluoroethyl)-1H-pyrazol-4-yl)pyrimidin-5-yl)ethynyl)pyrimidin-2-yl)-3-(methoxymethyl)piperazin-1-yl)-1,3,5-triazine], the negative logarithm of the Ki (pKi) was 9.05.
On the same count and under the same terms, then `COC[C@H]1CN(c2ncc(C#Cc3cnc(-c4cnn(CF)c4)nc3)cn2)CCN1c1ncncn1` [Example 56, (R)-2-(4-(5-((2-(1-(fluoromethyl)-1H-pyrazol-4-yl)pyrimidin-5-yl)ethynyl)pyrimidin-2-yl)-2-(methoxymethyl)piperazin-1-yl)-1,3,5-triazine], with 9.19; and `C[C@H]1CN(c2ccc(F)cn2)CCN1c1ncc(C#Cc2cnc(-n3cnnc3)nc2)cn1` [Example 86, (S)-5-((2-(4H-1,2,4-triazol-4-yl)pyrimidin-5-yl)ethynyl)-2-(4-(5-fluoropyridin-2-yl)-2-methylpiperazin-1-yl)pyrimidine], with 8.59; and `COC[C@H]1CN(c2ncc(C#Cc3ccc(-c4cnn(CCF)c4)nc3)cn2)CCN1c1ncc(F)cn1` [Example 90, (R)-5-fluoro-2-(4-(5-((6-(1-(2-fluoroethyl)-1H-pyrazol-4-yl)pyridin-3-yl)ethynyl)pyrimidin-2-yl)-2-(methoxymethyl)piperazin-1-yl)pyrimidine], with 8.74.

The experiment is the same for the next values; noted with them: radioligand [^3H]-1000, PD brain insoluble fraction.
In the case of “[^3H]-(S)-6-(1H-imidazol-1-yl)-N-(2-(2-methyl-4-(pyridin-2-yl)piperazin-1-yl)pyrimidin-5-yl)nicotinamide [[^3H]-1000, reference compound]”, the pKd is 9.05.

The experiment is the same for the next values; noted with them: read-out: α-synuclein Tissue Ki (Assay 1).
For `Cn1cc(-c2ncc(/C=C/c3cnc(N4CCN(c5ncncn5)[C@@H](COCCF)C4)nc3)cn2)cn1` [Example 43, (R,E)-2-(2-((2-fluoroethoxy)methyl)-4-(5-(2-(2-(1-methyl-1H-pyrazol-4-yl)pyrimidin-5-yl)vinyl)pyrimidin-2-yl)piperazin-1-yl)-1,3,5-triazine], the pKi was 8.91.
Turning to `Cn1ccc(-c2ncc(C#Cc3cnc(N4CCN(c5ncc(F)cn5)[C@@H](COCCF)C4)nc3)cn2)n1` [Example 97, (R)-5-fluoro-2-(2-((2-fluoroethoxy)methyl)-4-(5-((2-(1-methyl-1H-pyrazol-3-yl)pyrimidin-5-yl)ethynyl)pyrimidin-2-yl)piperazin-1-yl)pyrimidine], the pKi was 8.37.
Still for that read-out and setting: for `COC[C@H]1CN(c2ncc(C#Cc3ccc(-n4ccnc4)nc3)cn2)CCN1c1cc(F)ncn1` [Example 12, (R)-5-((6-(1H-imidazol-1-yl)pyridin-3-yl)ethynyl)-2-(4-(6-fluoropyrimidin-4-yl)-3-(methoxymethyl)piperazin-1-yl)pyrimidine] the value was 8.96.
